For assay [1], the system named is MDA-MB-231 cells.
Assay [2] has as its system PBMC. The conditions noted are these: 12.5 µM.

The structures appear in SMILES notation.

On to `CC[C@H](C)[C@H](N)C(=O)N[C@@H](CC(N)=O)C(=O)N[C@@H](CC(C)C)C(=O)N[C@@H](CCCCN)C(=O)N[C@H](C(=O)N[C@@H](CC(C)C)C(=O)N[C@@H](C)C(=O)N[C@@H](C)C(=O)N[C@@H](CC(C)C)C(=O)N[C@@H](C)C(=O)N[C@@H](CCCCN)C(=O)N[C@@H](CCCCN)C(=O)N[C@H](C(=O)N[C@@H](CC(C)C)C(N)=O)[C@@H](C)CC)C(C)C` [V5], for which, in assay [1], the “Average (percentage cell inhibition), Dmastoparan MDA-MB231 12.5uM” value is reported as 36.2551%. Further, the “Average (percentage cell inhibition), Mastoparan PBMC” value in assay [2] is 6.235%.

In the case of `CC[C@H](C)[C@H](N)C(=O)N[C@@H](CC(N)=O)C(=O)N[C@@H](CC(C)C)C(=O)N[C@@H](CCCCN)C(=O)N[C@@H](C)C(=O)N[C@H](C(=O)N[C@@H](C)C(=O)N[C@@H](C)C(=O)N[C@@H](CC(C)C)C(=O)N[C@@H](C)C(=O)N[C@@H](CCCCN)C(=O)N[C@@H](CCCCN)C(=O)N[C@H](C(=O)N[C@@H](CC(C)C)C(N)=O)[C@@H](C)CC)C(C)C` [V6], the “Average (percentage cell inhibition), Dmastoparan MDA-MB231 12.5uM” value in assay [1] amounted to 10.4144%. For the same compound, the “Average (percentage cell inhibition), Mastoparan PBMC” value in assay [2] is -4.76%.

Consider `CC[C@H](C)[C@H](N)C(=O)N[C@@H](CC(N)=O)C(=O)N[C@@H](CC(C)C)C(=O)N[C@@H](CCCCN)C(=O)N[C@@H](C)C(=O)N[C@@H](CC(C)C)C(=O)N[C@H](C(=O)N[C@@H](C)C(=O)N[C@@H](CC(C)C)C(=O)N[C@@H](C)C(=O)N[C@@H](CCCCN)C(=O)N[C@@H](CCCCN)C(=O)N[C@H](C(=O)N[C@@H](CC(C)C)C(N)=O)[C@@H](C)CC)C(C)C` [V7], for which, in assay [1], the “Average (percentage cell inhibition), Dmastoparan MDA-MB231 12.5uM” value is recorded as 57.1739%. The “Average (percentage cell inhibition), Mastoparan PBMC” value in assay [2] is recorded as 22.1422%.

Consider `CC[C@H](C)[C@H](N)C(=O)N[C@@H](CC(N)=O)C(=O)N[C@@H](CC(C)C)C(=O)N[C@@H](CCCCN)C(=O)N[C@@H](C)C(=O)N[C@@H](CC(C)C)C(=O)N[C@@H](C)C(=O)N[C@H](C(=O)N[C@@H](CC(C)C)C(=O)N[C@@H](C)C(=O)N[C@@H](CCCCN)C(=O)N[C@@H](CCCCN)C(=O)N[C@H](C(=O)N[C@@H](CC(C)C)C(N)=O)[C@@H](C)CC)C(C)C` [V8], for which the “Average (percentage cell inhibition), Dmastoparan MDA-MB231 12.5uM” value in assay [1] amounted to 43.0954%. For the same compound, the “Average (percentage cell inhibition), Mastoparan PBMC” value in assay [2] was found to be 11.0844%.

`CC[C@H](C)[C@H](N)C(=O)N[C@@H](CC(N)=O)C(=O)N[C@@H](CC(C)C)C(=O)N[C@@H](CCCCN)C(=O)N[C@@H](C)C(=O)N[C@@H](CC(C)C)C(=O)N[C@@H](C)C(=O)N[C@@H](C)C(=O)N[C@H](C(=O)N[C@@H](C)C(=O)N[C@@H](CCCCN)C(=O)N[C@@H](CCCCN)C(=O)N[C@H](C(=O)N[C@@H](CC(C)C)C(N)=O)[C@@H](C)CC)C(C)C` [V9]: the “Average (percentage cell inhibition), Dmastoparan MDA-MB231 12.5uM” value in assay [1] was 43.1794%. Moreover, the “Average (percentage cell inhibition), Mastoparan PBMC” value in assay [2] amounted to 10.0305%.

As to `CC[C@H](C)[C@H](N)C(=O)N[C@@H](CC(N)=O)C(=O)N[C@@H](CC(C)C)C(=O)N[C@@H](CCCCN)C(=O)N[C@@H](C)C(=O)N[C@@H](CC(C)C)C(=O)N[C@@H](C)C(=O)N[C@@H](C)C(=O)N[C@@H](CC(C)C)C(=O)N[C@H](C(=O)N[C@@H](CCCCN)C(=O)N[C@@H](CCCCN)C(=O)N[C@H](C(=O)N[C@@H](CC(C)C)C(N)=O)[C@@H](C)CC)C(C)C` [V10], the “Average (percentage cell inhibition), Dmastoparan MDA-MB231 12.5uM” value in assay [1] was 85.9235%. Besides, the “Average (percentage cell inhibition), Mastoparan PBMC” value in assay [2] was 37.352%.

`CC[C@H](C)[C@H](N)C(=O)N[C@@H](CC(N)=O)C(=O)N[C@@H](CC(C)C)C(=O)N[C@@H](CCCCN)C(=O)N[C@@H](C)C(=O)N[C@@H](CC(C)C)C(=O)N[C@@H](C)C(=O)N[C@@H](C)C(=O)N[C@@H](CC(C)C)C(=O)N[C@@H](C)C(=O)N[C@H](C(=O)N[C@@H](CCCCN)C(=O)N[C@H](C(=O)N[C@@H](CC(C)C)C(N)=O)[C@@H](C)CC)C(C)C` [V11]: the “Average (percentage cell inhibition), Dmastoparan MDA-MB231 12.5uM” value in assay [1] came out at 50.781%. Further, the “Average (percentage cell inhibition), Mastoparan PBMC” value in assay [2] was 14.2972%.

Take `CC[C@H](C)[C@H](N)C(=O)N[C@@H](CC(N)=O)C(=O)N[C@@H](CC(C)C)C(=O)N[C@@H](CCCCN)C(=O)N[C@@H](C)C(=O)N[C@@H](CC(C)C)C(=O)N[C@@H](C)C(=O)N[C@@H](C)C(=O)N[C@@H](CC(C)C)C(=O)N[C@@H](C)C(=O)N[C@@H](CCCCN)C(=O)N[C@H](C(=O)N[C@H](C(=O)N[C@@H](CC(C)C)C(N)=O)[C@@H](C)CC)C(C)C` [V12]: the “Average (percentage cell inhibition), Dmastoparan MDA-MB231 12.5uM” value in assay [1] is recorded as 51.0657%. The “Average (percentage cell inhibition), Mastoparan PBMC” value in assay [2] is reported as 18.2596%.

For `CC[C@H](C)[C@H](N)C(=O)N[C@@H](CC(N)=O)C(=O)N[C@@H](CC(C)C)C(=O)N[C@@H](CCCCN)C(=O)N[C@@H](C)C(=O)N[C@@H](CC(C)C)C(=O)N[C@@H](C)C(=O)N[C@@H](C)C(=O)N[C@@H](CC(C)C)C(=O)N[C@@H](C)C(=O)N[C@@H](CCCCN)C(=O)N[C@@H](CCCCN)C(=O)N[C@H](C(=O)N[C@@H](CC(C)C)C(N)=O)C(C)C` [V13], in assay [1], the “Average (percentage cell inhibition), Dmastoparan MDA-MB231 12.5uM” value is given as 38.0334%. In addition, the “Average (percentage cell inhibition), Mastoparan PBMC” value in assay [2] stood at 11.5837%.

Regarding `CC[C@H](C)[C@H](N)C(=O)N[C@@H](CC(N)=O)C(=O)N[C@@H](CC(C)C)C(=O)N[C@@H](CCCCN)C(=O)N[C@@H](C)C(=O)N[C@@H](CC(C)C)C(=O)N[C@@H](C)C(=O)N[C@@H](C)C(=O)N[C@@H](CC(C)C)C(=O)N[C@@H](C)C(=O)N[C@@H](CCCCN)C(=O)N[C@@H](CCCCN)C(=O)N[C@H](C(=O)N[C@H](C(N)=O)C(C)C)[C@@H](C)CC` [V14], the “Average (percentage cell inhibition), Dmastoparan MDA-MB231 12.5uM” value in assay [1] is 42.849%. For the same compound, the “Average (percentage cell inhibition), Mastoparan PBMC” value in assay [2] came to 3.082%.

With `CC[C@H](C)[C@H](NC(=O)[C@H](CCCCN)NC(=O)[C@H](CCCCN)NC(=O)[C@H](C)NC(=O)[C@H](CC(C)C)NC(=O)[C@H](C)NC(=O)[C@H](C)NC(=O)[C@H](CC(C)C)NC(=O)[C@H](C)NC(=O)[C@H](CCCCN)NC(=O)[C@H](CC(C)C)NC(=O)[C@H](CC(N)=O)NC(=O)[C@@H](N)Cc1c[nH]c2ccccc12)C(=O)N[C@@H](CC(C)C)C(N)=O` [W1], in assay [1], the “Average (percentage cell inhibition), Dmastoparan MDA-MB231 12.5uM” value is reported as 42.4034%. Moreover, the “Average (percentage cell inhibition), Mastoparan PBMC” value in assay [2] is 19.8521%.

`CC[C@H](C)[C@H](N)C(=O)N[C@@H](Cc1c[nH]c2ccccc12)C(=O)N[C@@H](CC(C)C)C(=O)N[C@@H](CCCCN)C(=O)N[C@@H](C)C(=O)N[C@@H](CC(C)C)C(=O)N[C@@H](C)C(=O)N[C@@H](C)C(=O)N[C@@H](CC(C)C)C(=O)N[C@@H](C)C(=O)N[C@@H](CCCCN)C(=O)N[C@@H](CCCCN)C(=O)N[C@H](C(=O)N[C@@H](CC(C)C)C(N)=O)[C@@H](C)CC` [W2]: in assay [1], the “Average (percentage cell inhibition), Dmastoparan MDA-MB231 12.5uM” value is recorded as 98.3458%. Further, the “Average (percentage cell inhibition), Mastoparan PBMC” value in assay [2] is recorded as 92.9669%.

`CC[C@H](C)[C@H](N)C(=O)N[C@@H](CC(N)=O)C(=O)N[C@@H](Cc1c[nH]c2ccccc12)C(=O)N[C@@H](CCCCN)C(=O)N[C@@H](C)C(=O)N[C@@H](CC(C)C)C(=O)N[C@@H](C)C(=O)N[C@@H](C)C(=O)N[C@@H](CC(C)C)C(=O)N[C@@H](C)C(=O)N[C@@H](CCCCN)C(=O)N[C@@H](CCCCN)C(=O)N[C@H](C(=O)N[C@@H](CC(C)C)C(N)=O)[C@@H](C)CC` [W3]: the “Average (percentage cell inhibition), Dmastoparan MDA-MB231 12.5uM” value in assay [1] is recorded as 65.1242%. Besides, in assay [2], the “Average (percentage cell inhibition), Mastoparan PBMC” value is recorded as 22.6054%.

With `CC[C@H](C)[C@H](N)C(=O)N[C@@H](CC(N)=O)C(=O)N[C@@H](CC(C)C)C(=O)N[C@@H](Cc1c[nH]c2ccccc12)C(=O)N[C@@H](C)C(=O)N[C@@H](CC(C)C)C(=O)N[C@@H](C)C(=O)N[C@@H](C)C(=O)N[C@@H](CC(C)C)C(=O)N[C@@H](C)C(=O)N[C@@H](CCCCN)C(=O)N[C@@H](CCCCN)C(=O)N[C@H](C(=O)N[C@@H](CC(C)C)C(N)=O)[C@@H](C)CC` [W4], the “Average (percentage cell inhibition), Dmastoparan MDA-MB231 12.5uM” value in assay [1] came to 50.1282%. In addition, the “Average (percentage cell inhibition), Mastoparan PBMC” value in assay [2] amounted to 30.4839%.

Take `CC[C@H](C)[C@H](N)C(=O)N[C@@H](CC(N)=O)C(=O)N[C@@H](CC(C)C)C(=O)N[C@@H](CCCCN)C(=O)N[C@@H](Cc1c[nH]c2ccccc12)C(=O)N[C@@H](CC(C)C)C(=O)N[C@@H](C)C(=O)N[C@@H](C)C(=O)N[C@@H](CC(C)C)C(=O)N[C@@H](C)C(=O)N[C@@H](CCCCN)C(=O)N[C@@H](CCCCN)C(=O)N[C@H](C(=O)N[C@@H](CC(C)C)C(N)=O)[C@@H](C)CC` [W5]: in assay [1], the “Average 6.5uM” value is on record as 75.0546% and the “Average (percentage cell inhibition), Dmastoparan MDA-MB231 12.5uM” value was found to be 97.3063%. Further, in assay [2], the “Average (percentage cell inhibition), Mastoparan PBMC” value turned out to be 88.7179%.

In the case of `CC[C@H](C)[C@H](N)C(=O)N[C@@H](CC(N)=O)C(=O)N[C@@H](CC(C)C)C(=O)N[C@@H](CCCCN)C(=O)N[C@@H](C)C(=O)N[C@@H](Cc1c[nH]c2ccccc12)C(=O)N[C@@H](C)C(=O)N[C@@H](C)C(=O)N[C@@H](CC(C)C)C(=O)N[C@@H](C)C(=O)N[C@@H](CCCCN)C(=O)N[C@@H](CCCCN)C(=O)N[C@H](C(=O)N[C@@H](CC(C)C)C(N)=O)[C@@H](C)CC` [W6], the “Average (percentage cell inhibition), Dmastoparan MDA-MB231 12.5uM” value in assay [1] is given as 42.8966%. Also, the “Average (percentage cell inhibition), Mastoparan PBMC” value in assay [2] came out at 18.297%.

Regarding `CC[C@H](C)[C@H](N)C(=O)N[C@@H](CC(N)=O)C(=O)N[C@@H](CC(C)C)C(=O)N[C@@H](CCCCN)C(=O)N[C@@H](C)C(=O)N[C@@H](CC(C)C)C(=O)N[C@@H](Cc1c[nH]c2ccccc12)C(=O)N[C@@H](C)C(=O)N[C@@H](CC(C)C)C(=O)N[C@@H](C)C(=O)N[C@@H](CCCCN)C(=O)N[C@@H](CCCCN)C(=O)N[C@H](C(=O)N[C@@H](CC(C)C)C(N)=O)[C@@H](C)CC` [W7], in assay [1], the “Average (percentage cell inhibition), Dmastoparan MDA-MB231 12.5uM” value is on record as 92.6725%. The “Average (percentage cell inhibition), Mastoparan PBMC” value in assay [2] was 70.534%.

For `CC[C@H](C)[C@H](N)C(=O)N[C@@H](CC(N)=O)C(=O)N[C@@H](CC(C)C)C(=O)N[C@@H](CCCCN)C(=O)N[C@@H](C)C(=O)N[C@@H](CC(C)C)C(=O)N[C@@H](C)C(=O)N[C@@H](Cc1c[nH]c2ccccc12)C(=O)N[C@@H](CC(C)C)C(=O)N[C@@H](C)C(=O)N[C@@H](CCCCN)C(=O)N[C@@H](CCCCN)C(=O)N[C@H](C(=O)N[C@@H](CC(C)C)C(N)=O)[C@@H](C)CC` [W8], in assay [1], the “Average (percentage cell inhibition), Dmastoparan MDA-MB231 12.5uM” value was 62.4515%. In addition, in assay [2], the “Average (percentage cell inhibition), Mastoparan PBMC” value is 51.7838%.

These data come from publication PMC12748989 (Nature Communications, 2025).
